Measured values taken from ChEMBL document CHEMBL5291721, “A preclinical secondary pharmacology resource illuminates target-adverse drug reaction associations of marketed drugs” (Nat Commun, 2023).

Experiments:
[1] = biological target: 5-hydroxytryptamine receptor 2A (Homo sapiens, UniProt P28223); assay type: functional, cell-based
[2] = biological target: T1, Alpha-2A adrenergic receptor (Homo sapiens, UniProt P08913); assay type: functional, cell-based
T1 sequence (P08913 whole entry): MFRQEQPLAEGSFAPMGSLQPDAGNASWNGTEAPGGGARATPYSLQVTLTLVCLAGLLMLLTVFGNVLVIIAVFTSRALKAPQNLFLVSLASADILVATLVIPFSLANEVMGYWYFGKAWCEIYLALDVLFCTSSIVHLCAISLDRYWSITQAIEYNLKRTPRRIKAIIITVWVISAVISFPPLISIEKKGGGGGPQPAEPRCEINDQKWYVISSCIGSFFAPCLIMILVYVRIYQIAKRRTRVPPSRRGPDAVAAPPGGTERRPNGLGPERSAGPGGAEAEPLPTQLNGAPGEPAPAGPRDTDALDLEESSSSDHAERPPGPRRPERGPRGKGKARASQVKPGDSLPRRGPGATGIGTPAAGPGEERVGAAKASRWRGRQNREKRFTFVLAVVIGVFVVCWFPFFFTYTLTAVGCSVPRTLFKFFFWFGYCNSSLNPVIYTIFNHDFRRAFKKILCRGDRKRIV

[3] = biological target: T2, 5-hydroxytryptamine receptor 2C (Homo sapiens, UniProt P28335)
T2 sequence (P28335 whole entry): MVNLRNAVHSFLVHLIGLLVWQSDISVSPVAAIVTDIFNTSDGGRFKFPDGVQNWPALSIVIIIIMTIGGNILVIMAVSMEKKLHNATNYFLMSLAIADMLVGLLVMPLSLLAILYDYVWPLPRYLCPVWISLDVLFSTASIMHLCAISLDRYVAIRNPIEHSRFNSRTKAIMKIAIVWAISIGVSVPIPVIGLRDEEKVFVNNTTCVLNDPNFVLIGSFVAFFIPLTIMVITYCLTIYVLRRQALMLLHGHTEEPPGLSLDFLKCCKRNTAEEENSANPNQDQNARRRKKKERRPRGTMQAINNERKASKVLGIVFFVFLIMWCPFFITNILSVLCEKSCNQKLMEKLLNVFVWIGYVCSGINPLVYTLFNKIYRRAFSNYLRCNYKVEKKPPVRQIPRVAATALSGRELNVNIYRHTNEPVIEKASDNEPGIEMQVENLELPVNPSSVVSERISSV

[4] = biological target: T3, Gamma-aminobutyric acid receptor subunit alpha-1 (Rattus norvegicus, UniProt P62813); assay type: functional
T3 sequence (P62813 whole entry): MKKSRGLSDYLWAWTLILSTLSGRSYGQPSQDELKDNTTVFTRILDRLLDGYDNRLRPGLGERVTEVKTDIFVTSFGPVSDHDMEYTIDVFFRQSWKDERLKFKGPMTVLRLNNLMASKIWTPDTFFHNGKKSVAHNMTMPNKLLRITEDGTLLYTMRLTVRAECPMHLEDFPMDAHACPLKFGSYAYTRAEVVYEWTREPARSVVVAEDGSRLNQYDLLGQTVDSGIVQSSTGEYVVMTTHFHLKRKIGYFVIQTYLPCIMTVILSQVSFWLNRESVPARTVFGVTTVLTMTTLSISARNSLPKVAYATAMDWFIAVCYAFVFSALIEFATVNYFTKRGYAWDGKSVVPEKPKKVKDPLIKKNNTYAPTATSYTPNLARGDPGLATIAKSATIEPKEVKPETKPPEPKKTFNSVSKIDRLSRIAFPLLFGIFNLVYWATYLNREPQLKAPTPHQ

[5] = biological target: T3, Gamma-aminobutyric acid receptor subunit alpha-1
[6] = biological target: T4, Prostaglandin G/H synthase 1 (Rattus norvegicus, UniProt Q63921); assay type: functional
T4 sequence (Q63921 whole entry): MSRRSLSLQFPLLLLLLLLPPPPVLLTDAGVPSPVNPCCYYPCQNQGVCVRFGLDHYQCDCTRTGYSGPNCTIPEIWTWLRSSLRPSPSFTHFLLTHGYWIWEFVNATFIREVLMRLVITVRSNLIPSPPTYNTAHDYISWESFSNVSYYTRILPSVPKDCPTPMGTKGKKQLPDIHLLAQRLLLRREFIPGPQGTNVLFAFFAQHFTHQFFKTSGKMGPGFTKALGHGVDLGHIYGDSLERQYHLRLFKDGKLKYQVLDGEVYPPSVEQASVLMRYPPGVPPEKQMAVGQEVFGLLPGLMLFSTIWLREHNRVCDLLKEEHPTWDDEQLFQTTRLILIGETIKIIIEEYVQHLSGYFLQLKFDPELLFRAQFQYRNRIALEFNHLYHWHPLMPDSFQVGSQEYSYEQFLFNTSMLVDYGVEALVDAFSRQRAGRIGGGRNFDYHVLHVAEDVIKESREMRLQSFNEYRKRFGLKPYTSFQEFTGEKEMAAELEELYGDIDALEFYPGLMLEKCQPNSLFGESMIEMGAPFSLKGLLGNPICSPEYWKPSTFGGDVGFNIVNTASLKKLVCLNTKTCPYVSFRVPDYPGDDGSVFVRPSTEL

Melanocortin receptor 3 = Melanocortin receptor 3 (Homo sapiens, UniProt P41968)
Melanocortin receptor 3, sequence (P41968 whole entry): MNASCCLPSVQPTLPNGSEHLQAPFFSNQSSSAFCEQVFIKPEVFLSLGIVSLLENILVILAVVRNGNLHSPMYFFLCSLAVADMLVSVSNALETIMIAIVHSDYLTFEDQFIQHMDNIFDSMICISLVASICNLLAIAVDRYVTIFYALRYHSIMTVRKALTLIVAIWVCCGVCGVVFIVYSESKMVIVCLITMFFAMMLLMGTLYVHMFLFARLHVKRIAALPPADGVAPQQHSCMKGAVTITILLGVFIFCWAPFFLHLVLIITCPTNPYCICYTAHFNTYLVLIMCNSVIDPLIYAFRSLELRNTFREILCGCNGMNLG

[7] = biological target: Growth hormone secretagogue receptor type 1 (Homo sapiens, UniProt Q92847)
Growth hormone secretagogue receptor type 1, sequence (Q92847 whole entry): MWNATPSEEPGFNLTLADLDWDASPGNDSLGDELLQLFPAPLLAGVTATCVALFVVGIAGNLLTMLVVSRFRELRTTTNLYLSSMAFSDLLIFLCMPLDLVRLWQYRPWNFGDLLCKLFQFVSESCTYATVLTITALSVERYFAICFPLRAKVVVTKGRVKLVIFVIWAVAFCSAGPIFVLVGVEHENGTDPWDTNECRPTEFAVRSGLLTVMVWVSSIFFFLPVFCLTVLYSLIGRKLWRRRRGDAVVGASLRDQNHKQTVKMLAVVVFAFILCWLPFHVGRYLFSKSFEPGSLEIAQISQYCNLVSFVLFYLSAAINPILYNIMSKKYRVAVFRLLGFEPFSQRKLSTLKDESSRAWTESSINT

Histamine H3 receptor = Histamine H3 receptor (Homo sapiens, UniProt Q9Y5N1)
Histamine H3 receptor, sequence (Q9Y5N1 whole entry): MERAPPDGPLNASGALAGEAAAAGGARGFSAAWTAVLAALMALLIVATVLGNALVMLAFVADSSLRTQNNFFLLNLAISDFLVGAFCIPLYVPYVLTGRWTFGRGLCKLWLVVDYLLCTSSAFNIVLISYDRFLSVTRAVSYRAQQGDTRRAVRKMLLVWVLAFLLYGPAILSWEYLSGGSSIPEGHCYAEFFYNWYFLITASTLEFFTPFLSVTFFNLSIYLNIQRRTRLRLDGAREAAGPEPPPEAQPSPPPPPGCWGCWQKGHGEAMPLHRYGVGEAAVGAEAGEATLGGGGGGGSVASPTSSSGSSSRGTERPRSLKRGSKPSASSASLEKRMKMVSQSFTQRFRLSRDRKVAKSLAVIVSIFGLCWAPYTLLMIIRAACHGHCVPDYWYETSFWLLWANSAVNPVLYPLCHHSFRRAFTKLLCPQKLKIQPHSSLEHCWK

Progesterone receptor = biological target: T5, Progesterone receptor (Homo sapiens, UniProt P06401); assay type: functional
T5 sequence (P06401 whole entry): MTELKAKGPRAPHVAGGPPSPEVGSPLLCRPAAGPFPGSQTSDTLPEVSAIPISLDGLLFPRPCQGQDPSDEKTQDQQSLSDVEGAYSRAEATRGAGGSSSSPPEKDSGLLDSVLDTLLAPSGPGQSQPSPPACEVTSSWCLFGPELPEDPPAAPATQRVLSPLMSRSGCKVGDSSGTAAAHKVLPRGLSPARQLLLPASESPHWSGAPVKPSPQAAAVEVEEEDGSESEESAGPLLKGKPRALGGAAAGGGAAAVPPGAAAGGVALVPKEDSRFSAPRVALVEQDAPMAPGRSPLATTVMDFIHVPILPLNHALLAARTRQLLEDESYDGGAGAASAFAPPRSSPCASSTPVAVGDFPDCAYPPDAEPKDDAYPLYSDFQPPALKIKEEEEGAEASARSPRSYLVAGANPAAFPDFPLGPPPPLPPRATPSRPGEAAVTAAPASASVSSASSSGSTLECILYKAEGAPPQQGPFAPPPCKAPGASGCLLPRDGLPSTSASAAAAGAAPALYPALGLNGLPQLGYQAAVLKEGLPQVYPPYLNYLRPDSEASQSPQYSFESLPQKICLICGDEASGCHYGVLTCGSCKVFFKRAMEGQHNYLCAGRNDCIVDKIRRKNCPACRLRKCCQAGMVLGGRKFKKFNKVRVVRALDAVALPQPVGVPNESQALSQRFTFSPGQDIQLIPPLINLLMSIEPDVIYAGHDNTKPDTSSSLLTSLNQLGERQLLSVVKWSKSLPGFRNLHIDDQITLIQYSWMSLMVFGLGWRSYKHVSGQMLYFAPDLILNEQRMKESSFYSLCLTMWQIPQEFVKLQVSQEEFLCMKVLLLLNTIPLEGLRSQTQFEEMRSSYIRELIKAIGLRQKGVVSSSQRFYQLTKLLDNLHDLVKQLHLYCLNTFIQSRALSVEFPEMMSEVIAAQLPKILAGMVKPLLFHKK

Histamine H1 receptor = Histamine H1 receptor (Homo sapiens, UniProt P35367)
Histamine H1 receptor, sequence (P35367 whole entry): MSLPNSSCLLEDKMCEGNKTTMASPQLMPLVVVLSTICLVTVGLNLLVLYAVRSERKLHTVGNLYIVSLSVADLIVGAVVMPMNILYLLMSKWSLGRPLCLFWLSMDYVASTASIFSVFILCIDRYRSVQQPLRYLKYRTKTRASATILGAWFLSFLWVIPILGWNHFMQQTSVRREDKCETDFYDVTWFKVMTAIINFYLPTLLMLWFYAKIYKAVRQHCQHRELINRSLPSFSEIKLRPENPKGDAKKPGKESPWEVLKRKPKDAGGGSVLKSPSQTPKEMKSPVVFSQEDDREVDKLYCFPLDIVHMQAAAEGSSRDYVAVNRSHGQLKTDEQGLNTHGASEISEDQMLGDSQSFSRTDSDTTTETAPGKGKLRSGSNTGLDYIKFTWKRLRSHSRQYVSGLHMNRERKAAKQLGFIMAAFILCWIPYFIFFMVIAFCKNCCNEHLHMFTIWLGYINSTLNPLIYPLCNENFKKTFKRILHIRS
Also: assay procedure not described here.

5-hydroxytryptamine receptor 2A, sequence (P28223 whole entry): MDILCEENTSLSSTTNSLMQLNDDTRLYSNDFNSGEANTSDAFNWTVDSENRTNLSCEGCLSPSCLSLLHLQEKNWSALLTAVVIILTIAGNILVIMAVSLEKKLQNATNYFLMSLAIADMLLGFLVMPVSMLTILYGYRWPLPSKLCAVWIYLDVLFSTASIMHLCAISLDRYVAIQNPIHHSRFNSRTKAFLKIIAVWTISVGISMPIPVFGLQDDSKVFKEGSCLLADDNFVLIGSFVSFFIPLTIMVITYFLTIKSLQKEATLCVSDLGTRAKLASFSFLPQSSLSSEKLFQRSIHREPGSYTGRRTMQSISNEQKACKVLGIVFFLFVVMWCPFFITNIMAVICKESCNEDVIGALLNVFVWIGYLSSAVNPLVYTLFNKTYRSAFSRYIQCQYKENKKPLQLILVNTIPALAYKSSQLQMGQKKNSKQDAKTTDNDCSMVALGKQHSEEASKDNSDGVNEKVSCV

Row | Structure (SMILES) | AC50 [1] [µM] | AC50 [2] [µM] | AC50 [3] [µM] | AC50 [4] [µM] | AC50 [5] [µM] | AC50 [6] [µM] | AC50 (Melanocortin receptor 3) [µM] | AC50 [7] [µM] | AC50 (Histamine H3 receptor) [µM] | AC50 (Progesterone receptor) [µM] | AC50 (Histamine H1 receptor) [µM]
1 | CC(C)OC(=O)C(C(=O)OC(C)C)=C1SC=CS1 [MALOTILATE] | > 30 | > 30 | > 30 | 15 | > 30 | > 30 | > 30 | > 30 | > 30 | > 30 | > 30
2 | CC1(C)C(C=C(Cl)Cl)C1C(=O)OCc1cccc(Oc2ccccc2)c1 (configuration not stated) [PERMETHRIN] | > 10 | > 10 | > 30 | > 10 | > 10 | > 10 | > 10 | > 10 | > 10 | > 30 | > 10
3 | CC[N+]1(C)CCCC(OC(=O)C(O)(c2ccccc2)c2ccccc2)C1 (configuration not stated) [PIPENZOLATE] | > 30 | > 30 | > 30 | > 30 | > 30 | > 30 | > 30 | > 30 | > 30 | > 30 | 27

Continued, values first:

Row | AC50 [1] [µM] | AC50 [2] [µM] | AC50 [3] [µM] | AC50 [4] [µM] | AC50 [5] [µM] | AC50 [6] [µM] | AC50 (Melanocortin receptor 3) [µM] | AC50 [7] [µM] | AC50 (Histamine H3 receptor) [µM] | AC50 (Progesterone receptor) [µM] | AC50 (Histamine H1 receptor) [µM] | Structure (SMILES)
4 | > 30 | > 30 | > 30 | > 30 | > 30 | > 30 | > 30 | > 30 | > 30 | > 30 | > 30 | Cc1ccc(NC(=O)C2(c3ccc4c(c3)OC(F)(F)O4)CC2)nc1-c1cccc(C(=O)O)c1 [LUMACAFTOR]
5 | > 30 | > 30 | > 10 | > 30 | > 30 | > 30 | > 30 | > 30 | > 30 | > 30 | > 30 | CN(c1nccc(=O)[nH]1)C1CCN(c2nc3ccccc3n2Cc2ccc(F)cc2)CC1 [MIZOLASTINE]
6 | > 30 | > 30 | > 30 | > 30 | > 30 | > 30 | > 30 | > 30 | > 30 | > 30 | > 30 | CCOC(=O)Nc1ccc2c(c1)N(C(=O)CCN1CCOCC1)c1ccccc1S2 [MORICIZINE]
7 | > 30 | > 30 | > 30 | > 30 | > 30 | > 30 | > 30 | > 30 | > 30 | > 30 | > 30 | Cc1ccc(=O)n(-c2ccccc2)c1 [PIRFENIDONE]
